≈ marks a conversion by molar mass, not a printed value. Read-outs that look alike come from different tables or passages of the source.
Key:
[1] = in vitro; type: cell-based; details: human
Experimental: (§1) The compounds of Examples 2, 21A, and 19 were tested for 1) for ex vivo efficacy and 2) cytotoxicity. Ex vivo efficacy was determined by inhibition of Mycobacterium tuberculosis (Mtb) H37Rv, Mycobacterium avium complex (ATCC 700891 MAC 101), and Mycobacterium abscessus (ATCC 19977). Cytotoxicity tests were carried out against three human cell lines, THP-1 (ATCC TIB-202), HepG2 (ATCC HB-8065), and HeLa (ATCC CCL-2), IC50 values were calculated from dose response curves to determine cytotoxicity of test compounds. […] Of the three compounds tested for ex vivo efficacy against NTM strains, there was no activity (>32 mg/L) against M. avium and one compound with activity against M. abscessus. […] These compounds were not cytotoxic (>128 mg/L) against HepG2 and HeLa cells. The compounds average therapeutic index for HepG2 was 12.4-48.3 and 96.7-389 for HeLa.

[2] = tested on: Mycobacterium abscessus (ATCC 19977); test: Ex vivo efficacy, M. abscessus; type: cell-based
Experimental: as §1

[3] = tested on: Mycobacterium avium complex (ATCC 700891 MAC 101); test: Ex vivo efficacy, M. avium; type: cell-based
Experimental: as §1

[4] = tested on: M. avium (ATCC 700891 MAC 101); test: MIC determination in microdilution assay, M. avium; type: cell-based; details: Mycobacterium avium, ATCC700891
[5] = tested on: Mtb H37Rv; test: MIC determination in microdilution assay, Mtb H37Rv; type: cell-based; details: Mycobacterium tuberculosis
[6] = tested on: M. abscessus (ATCC 19977); test: MIC determination in microdilution assay, M. abscessus; type: cell-based, Mycobacterium abscessus; details: Mycobacteroides abscessus, ATCC19977; read-out: MIC M. abcessus 19977
[7] = HeLa cells, read-out: HeLa Cytotoxicity (IC50 μg/ml)
[8] = HepG2 cells, read-out: HepG2 Cytotoxicity (IC50 μg/ml)
[9] = THP-1 cells, read-out: THP-1 Cytotoxicity (IC50 μg/ml)

Compound	melting point [°C]	IC50 [1, 7] [µg/mL]	IC50 [1, 8] [µg/mL]	IC50 [1, 9] [µg/mL]	M. abscessus ex vivo efficacy (>90% inhibition μg/ml) [2] [µg/mL]	M. avium ex vivo efficacy (>90% inhibition μg/ml) [3] [µg/mL]	MIC [4] [µg/mL]	MIC [5] [µg/mL]	MIC [6] [µg/mL]
Cc1cc2nc(SCC(=O)N(C(C)C)C(C)C)[nH]c2cc1C [Example 2, 2-[(5,6-dimethyl-1H-1,3-benzodiazol-2-yl)sulfanyl]-N,N-bis(propan-2-yl)acetamide]	172	4 (≈ 12.5 µM)	0.5 (≈ 1.57 µM)	0.5 (≈ 1.57 µM)	0.25	0.5	> 64	0.5 (≈ 1.57 µM)	4 (≈ 12.5 µM)
Cc1cc2nc(CCC(=O)N(C(C)C)C(C)C)[nH]c2cc1C [Example 21A]	–	2 (≈ 6.63 µM)	≤ 0.125	≤ 0.125	0.25	0.25	16 (≈ 53.1 µM)	0.25 (≈ 0.829 µM)	2 (≈ 6.63 µM)
CC(C)N(C(=O)CCc1nc2cc(Cl)c(Cl)cc2[nH]1)C(C)C [Example 19]	–	1 (≈ 2.92 µM)	≤ 0.125	≤ 0.125	≤0.125	≤0.125	8 (≈ 23.4 µM)	≤ 0.125	1 (≈ 2.92 µM)
